{"source": "paper PMC11940343", "about": "“In Vitro and In Vivo Evaluation of the De Novo Designed Antimicrobial Peptide P6.2 Against a KPC-Producing P. aeruginosa Clinical Isolate” (Biomolecules, 2025)", "key": {"[1]": {"system": "Pseudomonas aeruginosa M13513", "assay": "MIC by broth microdilution (CLSI)", "format": "cell-based", "settings": "two consecutive values shown where replicates varied by one dilution", "source_text": "Pseudomonas aeruginosa M13513 is a clinical isolate carrying the carbapenemase KPC-2 (blaKPC-2 gene). This strain was generously supplied by the Servicio Antimicrobianos, Instituto Nacional de Enfermedades Infecciosas (INEI)-ANLIS “Dr. Carlos G. Malbrán” in Buenos Aires, Argentina.\nFor antimicrobial testing, bacterial cultures were maintained in Cation-Adjusted Mueller–Hinton Broth (CAMHB), following Clinical and Laboratory Standards Institute (CLSI) guidelines.\nThe minimal inhibitory concentration was assessed using a standard microdilution assay, following CLSI guidelines. Mueller–Hinton Broth (Laboratorios Britania S.A., Buenos Aires, Argentina) supplemented with Ca^2+ (20–25 mg/L) and Mg^2+ (10–12.5 mg/L) was used for the assay. The bacterial strains tested included Pseudomonas aeruginosa PAO1, Pseudomonas aeruginosa M13513, and Staphylococcus aureus ATCC® 25923."}, "Gram-negative bacteria": {"system": "Gram-negative bacteria", "settings": "cited from earlier work", "source_text": "This resistance arises from enzymatic inactivation by carbapenemases, as mentioned before, decreased cellular entry due to reduced expression of the outer membrane porins, and increased expression of efflux pumps."}, "[2]": {"settings": "Pseudomonas aeruginosa, M13513, CAMHB, read-out: MIC"}}, "note": "Read-outs that look alike come from different tables or passages of the source.", "data": [{"compound": "CNC(C)C1CCC(N)C(OC2C(N)CC(N)C(OC3OCC(C)(O)C(NC)C3O)C2O)O1", "note": "(centres unmarked) [Gentamicin]", "values": [{"measurement": "MIC", "setting": "[1]; [2]", "result": 2, "unit": "µg/mL"}]}, {"compound": "C[C@@H](O)[C@H]1C(=O)N2C(C(=O)O)=C(SCCN=CN)C[C@H]12", "note": "[Imipenem]", "values": [{"measurement": "MIC", "setting": "[1]; CAMHB", "result": "256/512"}]}, {"compound": "C[C@@H](O)[C@H]1C(=O)N2C(C(=O)O)=C(S[C@@H]3CN[C@H](C(=O)N(C)C)C3)[C@H](C)[C@H]12", "note": "[Meropenem, meropenem]", "values": [{"measurement": "MIC", "setting": "[1]; CAMHB", "result": "512/1024"}]}, {"compound": "NC[C@H]1O[C@H](O[C@H]2[C@H](O)[C@@H](O[C@H]3O[C@H](CO)[C@@H](O)[C@H](N)[C@H]3O)[C@H](N)C[C@@H]2N)[C@H](N)C[C@@H]1O", "note": "[Tobramycin]", "values": [{"measurement": "MIC", "setting": "[1]; [2]", "result": 1, "unit": "µg/mL"}]}, {"compound": "polymyxin B", "values": [{"measurement": "interaction with meropenem", "setting": "Gram-negative bacteria", "result": "displays synergy with meropenem"}]}]}
